Measured values: the supplement of paper PMC10307832

How the values were obtained:
Experiment in all cases: relative viability (nuclei count vs DMSO), 5 days (fraction); higher = more cells survive
CX-5461 + Pemetrexed = compound: Cc1cnc(CNC(=O)c2c(=O)c3ccc(N4CCCN(C)CC4)nc3n3c2sc2ccccc23)cn1 [CX-5461] + Nc1nc2[nH]cc(CCc3ccc(C(=O)N[C@@H](CCC(=O)O)C(=O)O)cc3)c2c(=O)[nH]1 [Pemetrexed] (partner 0.2 µM)
Outline: (§1)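 After 5 days of treatment, lung cancer cells in 1536-well plates were fixed and stained in a single step (final 0.05% Triton X-100, 1% formaldehyde, 1 ug/ml Hoechst) and their nuclei counted on 4× images. Treatment had been applied by pin tool the day after seeding as one drug alone or as a fixed anchor-drug dose with five library-drug doses (not always all listed) in √10 steps. Relative viability is the nuclei count of treated wells divided by that of vehicle wells, and values are medians of duplicate plates.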

CX-5461 + Palbociclib = compound: Cc1cnc(CNC(=O)c2c(=O)c3ccc(N4CCCN(C)CC4)nc3n3c2sc2ccccc23)cn1 [CX-5461] + CC(=O)c1c(C)c2cnc(Nc3ccc(N4CCNCC4)cn3)nc2n(C2CCCC2)c1=O [Palbociclib] (partner 0.5 µM)
Outline: as §1

IMD-0354 + Decitabine = compound: O=C(Nc1cc(C(F)(F)F)cc(C(F)(F)F)c1)c1cc(Cl)ccc1O [IMD-0354] + Nc1ncn([C@H]2C[C@H](O)[C@@H](CO)O2)c(=O)n1 [Decitabine] (partner 2 µM)
Outline: as §1

IMD-0354 + Alpelisib = compound: O=C(Nc1cc(C(F)(F)F)cc(C(F)(F)F)c1)c1cc(Cl)ccc1O [IMD-0354] + Cc1nc(NC(=O)N2CCC[C@H]2C(N)=O)sc1-c1ccnc(C(C)(C)C(F)(F)F)c1 [Alpelisib] (partner 2 µM)
Outline: as §1

Cell Line | relative viability (CX-5461 + Pemetrexed; first compound 0.01 µM) | relative viability (CX-5461 + Pemetrexed; first compound 0.03162 µM) | relative viability (CX-5461 + Pemetrexed; first compound 0.1 µM) | relative viability (CX-5461 + Pemetrexed; first compound 0.3162 µM) | relative viability (CX-5461 + Pemetrexed; first compound 1 µM) | relative viability (CX-5461 + Palbociclib; first compound 0.01 µM) | relative viability (CX-5461 + Palbociclib; first compound 0.03162 µM) | relative viability (CX-5461 + Palbociclib; first compound 0.1 µM) | relative viability (CX-5461 + Palbociclib; first compound 0.3162 µM) | relative viability (CX-5461 + Palbociclib; first compound 1 µM) | relative viability (IMD-0354 + Decitabine; first compound 0.04 µM) | relative viability (IMD-0354 + Decitabine; first compound 0.1265 µM) | relative viability (IMD-0354 + Decitabine; first compound 0.4 µM) | relative viability (IMD-0354 + Decitabine; first compound 1.265 µM) | relative viability (IMD-0354 + Decitabine; first compound 4 µM) | relative viability (IMD-0354 + Alpelisib; first compound 0.04 µM) | relative viability (IMD-0354 + Alpelisib; first compound 0.1265 µM) | relative viability (IMD-0354 + Alpelisib; first compound 0.4 µM) | relative viability (IMD-0354 + Alpelisib; first compound 1.265 µM) | relative viability (IMD-0354 + Alpelisib; first compound 4 µM)
NCI-H1975 | 0.286 | 0.296 | 0.274 | 0.331 | 0.264 | 0.788 | 0.553 | 0.665 | 0.826 | 0.382 | 0.389 | 0.409 | 0.36 | 0.2 | 0.21 | 0.799 | 0.679 | 0.36 | 0.167 | 0.204
CAL-12T | 1.29 | 1.29 | 1.09 | 1.1 | 0.86 | 0.49 | 0.511 | 0.448 | 0.347 | 0.121 | – | – | – | – | – | 1.49 | 1.31 | 0.596 | 0.267 | 0.173
HCC-44 | 0.56 | 0.694 | 0.644 | 0.649 | 0.55 | 0.906 | 1.05 | 0.969 | 0.926 | 0.953 | 0.971 | 0.939 | 0.813 | 0.625 | 0.449 | 0.857 | 0.728 | 0.379 | 0.185 | 0.134
EKVX | 0.457 | 0.394 | 0.437 | – | 0.322 | 0.399 | 0.396 | 0.406 | – | 0.298 | 0.294 | 0.316 | – | 0.36 | 0.155 | 0.931 | 0.992 | – | 0.73 | 0.179
NCI-H1651 | 0.551 | 0.6 | 0.546 | 0.623 | 0.18 | 0.455 | 0.517 | 0.536 | 0.513 | 0.526 | 0.667 | 0.638 | 0.528 | 0.156 | 0.147 | 1.17 | 0.987 | 0.584 | 0.266 | 0.0691
NCI-H2170 | 0.252 | 0.257 | 0.267 | 0.26 | 0.272 | 0.412 | 0.361 | 0.414 | 0.406 | 0.422 | 0.467 | 0.457 | 0.37 | 0.443 | 0.396 | 0.752 | 0.785 | 0.603 | 0.835 | 0.373
NCI-H1703 | – | – | – | – | – | – | – | – | – | – | – | – | – | – | – | 0.312 | 0.269 | 0.282 | 0.179 | 0.121
Calu-6 | – | – | – | – | – | – | – | – | – | – | – | – | – | – | – | 0.925 | 0.909 | 0.672 | 0.101 | 0.0892
EBC-1 | – | – | – | – | – | – | – | – | – | – | – | – | – | – | – | 0.882 | 0.788 | 0.559 | 0.174 | 0.227
A-427 | 0.98 | 0.908 | 0.927 | 0.967 | 0.714 | 0.526 | 0.533 | 0.491 | 0.329 | 0.425 | 0.709 | 0.593 | 0.522 | 0.15 | 0.175 | 1.04 | 1.13 | 0.815 | 0.69 | 0.104
NCI-H2347 | 0.396 | 0.42 | 0.431 | 0.411 | 0.41 | 0.424 | 0.437 | 0.427 | 0.407 | 0.404 | 0.546 | 0.653 | 0.483 | 0.491 | 0.323 | 1.05 | 1.12 | 0.772 | 0.498 | 0.37
NCI-H1355 | 1.08 | 1.08 | 1.03 | 1.02 | 0.853 | 0.424 | 0.467 | 0.41 | 0.417 | 0.388 | 0.397 | 0.373 | 0.327 | 0.274 | 0.21 | 1.07 | 0.692 | 0.736 | 0.561 | 0.222
SK-MES-1 | 0.95 | 0.988 | 0.888 | 0.955 | 0.546 | 0.299 | 0.308 | 0.281 | 0.342 | 0.249 | 0.387 | 0.386 | 0.306 | 0.176 | 0.205 | 0.976 | 0.834 | 0.598 | 0.283 | 0.285
PC-3 [JPC-3] | 1.18 | – | 1.11 | 1.15 | 0.86 | 0.517 | – | 0.533 | 0.543 | 0.512 | 0.984 | 0.813 | 0.756 | 0.481 | 0.336 | 1.1 | 1.04 | 0.714 | 0.774 | 0.183
NCI-H2228 | 0.355 | 0.369 | 0.312 | 0.305 | 0.182 | 0.709 | 0.612 | 0.563 | 0.73 | 0.115 | – | – | – | – | – | 0.686 | 0.738 | 0.631 | 0.263 | 0.182
HOP-62 | 0.236 | 0.384 | 0.297 | 0.28 | 0.321 | 0.415 | 0.446 | 0.461 | 0.413 | 0.415 | 0.217 | 0.226 | 0.208 | 0.17 | 0.0936 | 0.839 | 1.2 | 0.896 | 0.837 | 0.178
HARA | 0.204 | 0.272 | 0.27 | 0.208 | 0.253 | 0.24 | 0.227 | 0.331 | 0.228 | 0.253 | 0.5 | 0.665 | 0.399 | 0.189 | 0.251 | 0.942 | 0.724 | 0.503 | 0.141 | 0.169
NCI-H838 | 0.251 | 0.248 | 0.244 | 0.232 | 0.241 | 0.231 | 0.23 | 0.224 | 0.212 | 0.253 | 0.482 | 0.443 | 0.345 | 0.243 | 0.272 | 1.19 | 1.06 | 0.445 | 0.615 | 0.331
